Results: patent publication US11419806B2, “Prebiotic oral care methods using a saccharide” (Colgate-Palmolive Company, priority 2013, dated 2022)

Assays:
Assay in all cases: Twenty-four hour biofilm growth (crystal violet)
Format in all cases: cell-based
S. mitis = tested on: S. mitis
Method in brief: (§1)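 Bacteria at 1×10^7 CFU/ml in BHI were grown 24 h at 37 °C with D-turanose, D-lactitol, myo-inositol or N-acetyl-D-mannosamine (final 5, 10, 20, 25 μmol/ml), anaerobically for A. viscosus and in 5% CO2 for the others. Ethanol-fixed biofilm was stained with crystal violet and read at 630 nm.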

A. viscosus = tested on: A. viscosus
Method in brief: as §1

S. salivarius = tested on: S. salivarius
Method in brief: as §1

S. sanguinis = tested on: S. sanguinis
Method in brief: as §1

A. actinomycetemcomitans = tested on: A. actinomycetemcomitans
Method in brief: as §1

S. gordonii = tested on: S. gordonii
Method in brief: as §1

T. forsythia = tested on: T. forsythia
C. sputigena = tested on: C. sputigena

## OC[C@@H](O)[C@@H](O[C@H]1O[C@H](CO)[C@H](O)[C@H](O)[C@H]1O)[C@H](O)[C@@H](O)CO [D-Lactitol, 4-O-α-D-galactopyranosyl-D-glucitol]
S. mitis; 5 μmol/ml
  biofilm growth: OD 630 nm at 24 hrs divided by OD of control (control = 1): 0.6696
S. mitis; 10 μmol/ml
  biofilm growth: OD 630 nm at 24 hrs divided by OD of control (control = 1): 0.5919
S. mitis; 20 μmol/ml
  biofilm growth: OD 630 nm at 24 hrs divided by OD of control (control = 1): 0.8007
S. mitis; 25 μmol/ml
  biofilm growth: OD 630 nm at 24 hrs divided by OD of control (control = 1): 0.8340
A. viscosus; 5 μmol/ml
  biofilm growth: OD 630 nm at 24 hrs divided by OD of control (control = 1): 0.6832
A. viscosus; 10 μmol/ml
  biofilm growth: OD 630 nm at 24 hrs divided by OD of control (control = 1): 0.7502
A. viscosus; 20 μmol/ml
  biofilm growth: OD 630 nm at 24 hrs divided by OD of control (control = 1): 0.9528
A. viscosus; 25 μmol/ml
  biofilm growth: OD 630 nm at 24 hrs divided by OD of control (control = 1): 0.9153
S. salivarius; 5 μmol/ml
  biofilm growth: OD 630 nm at 24 hrs divided by OD of control (control = 1): 2.1471
S. salivarius; 10 μmol/ml
  biofilm growth: OD 630 nm at 24 hrs divided by OD of control (control = 1): 4.8849
S. salivarius; 20 μmol/ml
  biofilm growth: OD 630 nm at 24 hrs divided by OD of control (control = 1): 5.5726
S. salivarius; 25 μmol/ml
  biofilm growth: OD 630 nm at 24 hrs divided by OD of control (control = 1): 6.4158
S. sanguinis; 5 μmol/ml
  biofilm growth: OD 630 nm at 24 hrs divided by OD of control (control = 1): 1.2160
S. sanguinis; 10 μmol/ml
  biofilm growth: OD 630 nm at 24 hrs divided by OD of control (control = 1): 1.5548
S. sanguinis; 20 μmol/ml
  biofilm growth: OD 630 nm at 24 hrs divided by OD of control (control = 1): 1.8523
S. sanguinis; 25 μmol/ml
  biofilm growth: OD 630 nm at 24 hrs divided by OD of control (control = 1): 2.2341
A. actinomycetemcomitans; 5 μmol/ml
  biofilm growth: OD 630 nm at 24 hrs divided by OD of control (control = 1): 0.6593
A. actinomycetemcomitans; 10 μmol/ml
  biofilm growth: OD 630 nm at 24 hrs divided by OD of control (control = 1): 0.6496
A. actinomycetemcomitans; 20 μmol/ml
  biofilm growth: OD 630 nm at 24 hrs divided by OD of control (control = 1): 0.8502
A. actinomycetemcomitans; 25 μmol/ml
  biofilm growth: OD 630 nm at 24 hrs divided by OD of control (control = 1): 0.8372
S. gordonii; 5 μmol/ml
  biofilm growth: OD 630 nm at 24 hrs divided by OD of control (control = 1): 0.6036
S. gordonii; 10 μmol/ml
  biofilm growth: OD 630 nm at 24 hrs divided by OD of control (control = 1): 0.5959
S. gordonii; 20 μmol/ml
  biofilm growth: OD 630 nm at 24 hrs divided by OD of control (control = 1): 0.4885
S. gordonii; 25 μmol/ml
  biofilm growth: OD 630 nm at 24 hrs divided by OD of control (control = 1): 0.5149
T. forsythia; 5 μmol/ml
  biofilm growth: OD 630 nm at 24 hrs divided by OD of control (control = 1): 0.5843
T. forsythia; 10 μmol/ml
  biofilm growth: OD 630 nm at 24 hrs divided by OD of control (control = 1): 0.5942
T. forsythia; 20 μmol/ml
  biofilm growth: OD 630 nm at 24 hrs divided by OD of control (control = 1): 0.7398
T. forsythia; 25 μmol/ml
  biofilm growth: OD 630 nm at 24 hrs divided by OD of control (control = 1): 0.6158
C. sputigena; 5 μmol/ml
  biofilm growth: OD 630 nm at 24 hrs divided by OD of control (control = 1): 0.5867
C. sputigena; 10 μmol/ml
  biofilm growth: OD 630 nm at 24 hrs divided by OD of control (control = 1): 0.5658
C. sputigena; 20 μmol/ml
  biofilm growth: OD 630 nm at 24 hrs divided by OD of control (control = 1): 0.6841
C. sputigena; 25 μmol/ml
  biofilm growth: OD 630 nm at 24 hrs divided by OD of control (control = 1): 0.7591
